Results on four molecules are retold here after patent US8287919B2, “Low environmental impact pesticide made from “gras” ingredients for use against coqui frogs and other species” (priority 2009, dated 2012).

Data set [1] concerns mature Palm trees. The experiment in a line: Phytotoxicity to sprayed palm trees. In kind it is in vivo. Conditions: spray on mature palm trees. As to the method: Large-scale examples of the product's use and phytotoxicity at the same concentration (about 11.5%) as used in previous examples were also conducted by Palms of Hawaii. A five-gallon back pack sprayer equipped with a mist spray nozzle was used to spray mature Palm trees being prepared for distribution with about a gallon of spray each.
Upon spraying palm trees having frogs, frogs leap off the root balls and crowns and from the junctions between the fronds and tree trunks. The nurseryman rated the complete removal, if not extermination of all frogs from the trees as excellent.

The subject of data set [2] is common plants. More on the design: key: severe: most if not all the leaves turned black; flowers and leaves became bleached and recovery was slow; moderate: young leaves and new shoots burned; the outer edges of leaves burned and dropped; dark brown spots appeared where acid may have concentrated; and recovery of the plants were slow; slight: the leaves were spotted white, or lesions formed on the trunk. Conditions: citric acid 25%, three days after treatment, cited from earlier work.

In data set [3] the test system is Coqui. To be noted: in vivo; cited from earlier work.
Data set [4] concerns frogs. The experiment in a line: Frog killing time with different concentrations. In kind it is in vivo, Eleutherodactylus coqui. As to the method:
Additionally, this formulation killed 10 out of 10 frogs within about 15 minutes.

Data set [5] deals with human skin. The experiment in a line: Contact with human skin. It is filed as in vivo. Conditions: solution with pH of less than 0.5. As to the method:
As discussed above, AGIIS has relatively less dehydrating properties (such as charring sucrose) as compared to the saturated solution of CaSO4 in the same concentration of H2SO4. […] AGIIS has low volatility at room temperature and pressure.
In view of the need to find new phytogenic friendly alternatives for controlling the spread of Coqui frogs, a commercially available food sanitation product (i.e. Acidic Calcium Sulfate (“ACS”) was evaluated for inclusion in the current inventory of chemicals that can be applied as sprays. ACS and functional equivalents thereof are made from ingredients that are generally regarded as safe (“GRAS”), and is approved for use in food by the FDA and USDA. Although not wanting to be bound by theory, the efficacy of this product stems from its very unique characteristic of being able to donate a very high activity of hydrogen ions (low pH), while at the same time, having very low oxidative effects on plants and human skin. For example, a five (5) normal concentration of ACS having a pH of approximately zero may be held in the human hand without harm to the person holding the acid. In contrast, when very small amounts are applied to the skin of Coqui frogs it is quickly absorbed and respiration is immediately impaired with lethal results. […]

Read-outs that look alike come from different tables or passages of the source.

As for `O=C(O)CC(O)(CC(=O)O)C(=O)O` [citric acid], in data set [1], the “phytotoxicity to palm trees” value was “typically causes browning”. In addition, the phytotoxicity rating result is “moderate” in data set [2] (guava plant, bromeliad, dendrobium orchid and leatherleaf fern); “slight” in data set [2] (passion fruit and payaya); “severe” in data set [2] (streptocarpus, calathea and eggplants).
`[Ca+2].[OH-].[OH-]` [hydrated lime]: the “effectiveness in eradicating frogs” value in data set [3] is “not entirely effective”.
As to `CCC(=O)O` [propionic acid], the results for the “killing speed compared with standard citric acid” value in data set [4] (5% solution) and in data set [4] (10% solution) were “killed equally fast” and “killed frogs faster than standard citric acid”, respectively. Also, in data set [4] (concentrations from about 5% to about 10%), the lethality to frogs entry is “lethal to the frogs in the test group”.
For the molecule `O=S(=O)(O)O` [sulfuric acid], in data set [5], the “irritation of hand put into solution” value is reported as “an irritation would occur within a relatively short span of time”.
